In PMC10418395, “Tetracyclic 1,4-Naphthoquinone Thioglucoside Conjugate U-556 Blocks the Purinergic P2X7 Receptor in Macrophages and Exhibits Anti-Inflammatory Activity In Vivo” (International Journal of Molecular Sciences, 2023):

Key:
P2X7 receptor (hP2X7) = target: T1, P2X7 receptor (hP2X7) (Homo sapiens, UniProt Q99572); experiment: SPR (Biacore […], CM5 chip, Langmuir […]); type: binding
T1 construct: gene P2RX7
T1 sequence (Q99572 47-334): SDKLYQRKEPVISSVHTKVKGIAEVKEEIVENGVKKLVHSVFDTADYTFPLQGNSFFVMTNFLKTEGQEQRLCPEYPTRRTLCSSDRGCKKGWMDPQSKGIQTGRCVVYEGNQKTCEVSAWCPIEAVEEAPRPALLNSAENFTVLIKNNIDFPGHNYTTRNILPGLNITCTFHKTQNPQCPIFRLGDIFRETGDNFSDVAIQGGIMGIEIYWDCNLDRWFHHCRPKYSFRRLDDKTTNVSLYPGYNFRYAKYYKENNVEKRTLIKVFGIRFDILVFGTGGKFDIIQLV

P2X7 receptor (mP2X7R) [1] = target: T2, P2X7 receptor (mP2X7R) (Mus musculus, UniProt Q9Z1M0); experiment: BzATP/ATP-induced YO-PRO-1 uptake and Ca2+ influx in RAW […] cells; type: cell-based
T2 construct: gene P2rx7
T2 sequence (Q9Z1M0 1-595): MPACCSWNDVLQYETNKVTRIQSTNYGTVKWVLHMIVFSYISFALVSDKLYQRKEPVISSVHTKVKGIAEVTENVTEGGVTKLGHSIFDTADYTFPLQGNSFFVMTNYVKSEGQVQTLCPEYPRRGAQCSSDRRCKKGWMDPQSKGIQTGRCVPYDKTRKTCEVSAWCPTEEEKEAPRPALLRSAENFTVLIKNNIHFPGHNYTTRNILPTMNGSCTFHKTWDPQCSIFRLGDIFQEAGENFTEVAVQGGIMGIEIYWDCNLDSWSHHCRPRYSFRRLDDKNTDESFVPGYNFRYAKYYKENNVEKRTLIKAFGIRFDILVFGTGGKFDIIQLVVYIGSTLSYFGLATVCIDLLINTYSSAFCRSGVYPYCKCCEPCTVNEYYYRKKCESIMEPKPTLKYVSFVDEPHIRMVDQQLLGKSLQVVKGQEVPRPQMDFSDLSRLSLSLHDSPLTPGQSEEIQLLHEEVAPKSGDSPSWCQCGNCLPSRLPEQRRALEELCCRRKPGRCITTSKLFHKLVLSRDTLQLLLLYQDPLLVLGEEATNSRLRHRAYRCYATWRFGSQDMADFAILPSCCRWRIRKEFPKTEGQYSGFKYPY

P2X7 receptor (mP2X7R) [2] = target: T2, P2X7 receptor (mP2X7R); experiment: ATP/BzATP-induced YO-PRO-1 uptake and Ca2+ influx in RAW […] cells; type: cell-based

Kd (P2X7 receptor (hP2X7)) | inhibition at 0.1 µM (P2X7 receptor (mP2X7R) [1]) | Compound | inhibition at 10 µM (P2X7 receptor (mP2X7R) [2])
13 µM | 52.7% | Cc1c(C)c(O)c2c(c1O)C(=O)C1=C(S[C@@H]3O[C@H](CO)[C@@H](O)[C@H](O)[C@H]3O1)C2=O [compound 4] | –
– | – | Clc1cccc(-c2nnnn2Cc2cccnc2)c1Cl [A438079] | 48.3%
